From patent publication US8389557B2, “Triazole derivatives useful as Axl inhibitors” (Rigel Pharmaceuticals, Inc., priority 2005, dated 2013)

Target: T1, Axl (Homo sapiens, UniProt P30530)
T1 construct: endogenous in cells; host or cells: HeLa cells
T1 sequence (P30530 26-894): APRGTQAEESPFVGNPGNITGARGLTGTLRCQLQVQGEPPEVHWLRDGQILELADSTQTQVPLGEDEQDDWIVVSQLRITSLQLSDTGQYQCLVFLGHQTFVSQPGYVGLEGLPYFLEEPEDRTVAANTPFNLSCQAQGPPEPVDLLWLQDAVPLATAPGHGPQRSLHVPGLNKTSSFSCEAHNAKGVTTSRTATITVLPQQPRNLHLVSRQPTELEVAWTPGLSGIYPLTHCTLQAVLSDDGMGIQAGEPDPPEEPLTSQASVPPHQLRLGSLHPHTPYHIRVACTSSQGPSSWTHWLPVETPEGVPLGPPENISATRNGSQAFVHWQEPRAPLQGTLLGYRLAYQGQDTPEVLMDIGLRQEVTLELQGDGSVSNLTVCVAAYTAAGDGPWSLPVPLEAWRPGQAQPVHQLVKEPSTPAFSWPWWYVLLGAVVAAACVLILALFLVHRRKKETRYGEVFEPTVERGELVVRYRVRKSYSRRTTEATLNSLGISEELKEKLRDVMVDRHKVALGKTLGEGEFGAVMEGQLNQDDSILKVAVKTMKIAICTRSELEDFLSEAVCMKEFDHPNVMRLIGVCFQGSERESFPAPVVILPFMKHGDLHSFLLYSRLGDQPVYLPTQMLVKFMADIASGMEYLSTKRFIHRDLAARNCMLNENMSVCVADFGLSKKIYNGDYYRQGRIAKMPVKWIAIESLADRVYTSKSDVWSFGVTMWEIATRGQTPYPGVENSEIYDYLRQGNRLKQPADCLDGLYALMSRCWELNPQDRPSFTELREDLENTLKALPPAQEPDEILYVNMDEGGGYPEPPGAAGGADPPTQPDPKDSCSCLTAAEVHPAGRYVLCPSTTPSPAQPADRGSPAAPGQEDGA
Test: Phospho-Akt in-cell Western assay (inhibition of Axl activity)
Format: cell-based
Procedure, shortened: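 HeLa cells on poly-L-lysine, starved 24 h in 0.5% FCS DMEM with Axl/Fc 500 ng/mL, pre-treated with compound 1 h at 37° C. Axl stimulated 5 min by anti-Axl/anti-mouse antibody cross-linking. Fixed cells probed with anti-phospho-Akt and HRP secondary, chemiluminescence read.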

[1] = inhibition of Axl activity, phospho-Akt in-cell Western assay, Table 1
[2] = Table 2, Hela cells, Axl antibody cross-linking stimulation, phospho-Akt chemiluminescence
[3] = Table 3, Hela cells, Axl antibody cross-linking stimulation, phospho-Akt chemiluminescence
[4] = Table 7, Hela cells, Axl antibody cross-linking stimulation, phospho-Akt chemiluminescence
[5] = inhibition of Axl activity, Table 1

`Nc1nc(Nc2ccc(OCCN3CCCC3)cc2)nn1C(=O)c1cccc(-c2nccs2)c1` [compound 310, 5-amino-1-(3-(thiazol-2-yl)phenyl)carbonyl-3-[4-[2-(pyrrolidin-1-yl)ethoxy]phenylamino]-1H-1,2,4-triazole] gave an IC50 [1] of less than 1 µM.
In the case of `CC(C)c1ccc(C(=O)n2nc(N)nc2Nc2ccc3c(c2)OCCO3)cc1` [compound 233, 3-amino-5-(1,4-benzodioxan-6-yl)amino-1-(4-iso-propylphenyl)carbonyl-1H-1,2,4-triazole], the IC50 [2] is reported as greater than 20 µM.
With `Nc1nc(Nc2ccc(OCCN3CCCC3)cc2)nn1C(=O)c1ccc2cc[nH]c2c1` [compound #5, 5-Amino-1-(1H-indol-6-yl)carbonyl-3-[4-[2-(pyrrolidin-1-yl)ethoxy]phenylamino]-1H-1,2,4-triazole] the IC50 [3] was less than 1 µM.
For `Nc1nc(Nc2ccc(OCCN3CCCC3)cc2)nn1C(=O)c1ccc(-c2csnn2)cc1` [compound 280, 5-amino-1-(4-(1,2,3-thiadiazol-4-yl)phenyl)carbonyl-3-[4-[2-(pyrrolidin-1-yl)ethoxy]phenylamino]-1H-1,2,4-triazole], the IC50 [1] was less than 1 µM.
`NC(=O)C1C2C=CC(C2)C1Nc1nc(N)n(C(=O)c2ccc3cc[nH]c3c2)n1` (centres unmarked) [compound 356, 5-amino-1-(1H-indol-6-yl)carbonyl-3-[(5-(aminocarbonyl)bicyclo[2.2.1]hept-2-en-6-yl)amino]-1H-1,2,4-triazole] showed an IC50 (Table 9, Hela cells, Axl antibody cross-linking stimulation, phospho-Akt chemiluminescence) greater than 20 µM.
With `CC(=O)N(C)c1ccc(Nc2nc(N)n(C(=O)Nc3ccc(C(C)C)cc3)n2)cc1` [compound 179, 3-[4-(acetyl(methyl)amino)phenyl]amino-5-amino-N-(4-(iso-propyl)phenyl)-1H-1,2,4-triazole-1-carboxamide] the IC50 [4] was 1 to 10 µM.
Work on `CC1(C)Oc2ccc(C(=O)n3nc(Nc4ccc(N5CCCC5)cc4)nc3N)cc2NC1=O` [compound 295, 5-amino-1-(2,2-dimethyl-2H-benzo[b][1,4]oxazin-3(4H)-on-6-yl)carbonyl-3-[4-(pyrrolidin-1-yl)phenylamino]-1H-1,2,4-triazole] yielded an IC50 [3] of 1 to 10 µM.
With `Nc1nc(Nc2ccc(OCCN3CCCC3)cc2)nn1C(=O)c1ccc2[nH]ccc2c1` [compound #3, 5-Amino-1-(1H-indol-5-yl)carbonyl-3-[4-[2-(pyrrolidin-1-yl)ethoxy]phenylamino]-1H-1,2,4-triazole] the IC50 [3] was less than 1 µM.
`Cc1cccc(C(=O)n2nc(Nc3ccc4oc(CO)cc4c3)nc2N)c1` [compound 136, 5-amino-3-(2-(hydroxymethyl)benzofuran-5-yl)amino-1-(3-(methyl)phenyl)carbonyl-1H-1,2,4-triazole] was tested, and the IC50 (Table 5, Hela cells, Axl antibody cross-linking stimulation, phospho-Akt chemiluminescence) was 1 to 10 µM.
For `CN(C)c1ccc(C(=O)n2nc(Nc3ccc4c(c3)OCCO4)nc2N)cc1` [compound 247, 5-amino-1-[(4-dimethylamino)phenyl]carbonyl-3-(1,4-benzodioxan-6-yl)amino-1H-1,2,4-triazole], the IC50 [5] was 1 to 10 µM.
With `CC(C)(C)OC(=O)Nc1ccc(C(=O)n2nc(Nc3ccc(OCCN4CCCC4)cc3)nc2N)cc1` [compound 270, 5-amino-1-(4-(tert-butoxycarbonylamino)phenyl)carbonyl-3-[4-[2-(pyrrolidin-1-yl)ethoxy]phenylamino]-1H-1,2,4-triazole] the IC50 [1] was less than 1 µM.
For `Cc1ccc(C(=O)n2nc(Nc3ccc(OC(C)C)cc3)nc2N)cc1` [compound 55, 5-amino-3-[4-(iso-propoxy)phenylamino]-1-(4-(methyl)phenyl)carbonyl-1H-1,2,4-triazole], the IC50 [5] was less than 1 µM.
Compound `Nc1nc(Nc2ccc(OCCN3CCCC3)cc2)nn1C(=O)Nc1ccc2c(c1)OCO2` [compound 36, 5-amino-N-(1,3-benzodioxol-5-yl)-3-[4-[2-(pyrrolidin-1-yl)ethoxy]phenylamino]-1H-1,2,4-triazole-1-carboxamide] has an IC50 [4] of 1 to 10 µM.
`CC(C)(C)Oc1cccc(C(=O)n2nc(Nc3ccc(OCCCN4CCCC4)cc3)nc2N)c1` [compound #24, 5-Amino-3-[4-[3-(pyrrolidin-1-yl)propoxy]phenylamino]-1-(3-(tert-butoxy)phenyl)carbonyl-1H-1,2,4-triazole] showed an IC50 [1] of less than 1 µM.
Work on `COc1cc(Nc2nc(N)n(C(=O)c3ccc4cc[nH]c4c3)n2)ccc1OCCN1CCCC1` [compound 318, 5-amino-1-(1H-indol-6-yl)carbonyl-3-[3-methoxy-4-[2-(pyrrolidin-1-yl)ethoxy]phenylamino]-1H-1,2,4-triazole] yielded an IC50 [3] of less than 1 µM.
In the case of `CC(C)Oc1ccc(C(=O)n2nc(Nc3ccc(OCCN4CCCCCC4)cc3)nc2N)cc1` [compound 321, 5-amino-1-(4-(iso-propoxy)phenyl)carbonyl-3-[4-[2-(azepan-1-yl)ethoxy]phenylamino]-1H-1,2,4-triazole], the IC50 [1] is reported as less than 1 µM.
With `Cc1ccc(C(=O)n2nc(Nc3ccc(OCCN4CCCC4)cc3)nc2N)cc1` [compound #12, 5-Amino-1-(4-methylphenyl)carbonyl-3-[4-[2-(pyrrolidin-1-yl)ethoxy]phenylamino]-1H-1,2,4-triazole] the IC50 [1] was less than 1 µM.
With `COC(=O)COc1cccc(Nc2nc(N)n(C(=O)c3ccc(OC(C)C)cc3)n2)c1` [compound 135, 5-amino-1-(4-(iso-propoxy)phenyl)carbonyl-3-[3-(methoxycarbonylmethoxy)phenylamino]-1H-1,2,4-triazole] the IC50 [5] was 1 to 10 µM.
Work on `Nc1nc(Nc2ccc(OCCN3CCCC3)cc2)nn1C(=O)c1ccncc1` [compound 204, 5-amino-1-(pyridin-4-yl)carbonyl-3-[4-[2-(pyrrolidin-1-yl)ethoxy]phenylamino]-1H-1,2,4-triazole] yielded an IC50 [3] greater than 20 µM.
With `CC(C)(C)c1ccc(C(=O)n2nc(Nc3cccc(-c4cnco4)c3)nc2N)cc1` [compound 263, 5-amino-1-(4-(tert-butyl)phenyl)carbonyl-3-[3-(1,3-oxazol-5-yl)phenylamino]-1H-1,2,4-triazole] the IC50 [1] was 1 to 10 µM.
With `CC(C)Oc1ccc(C(=O)n2nc(N)nc2Nc2ccc(OCCN3CCCC3)cc2)cc1` [compound 191, 3-amino-1-(4-iso-propoxyphenyl)carbonyl-5-[4-[2-(pyrrolidin-1-yl)ethoxy]phenylamino]-1H-1,2,4-triazole] the IC50 [2] was 1 to 10 µM.
Compound `Cc1ccc(C(=O)n2nc(Nc3ccc(O)cc3)nc2N)cc1` [(Ia-4), 5-amino-3-[4-(hydroxy)phenylamino]-1-(4-methylphenyl)carbonyl-1H-1,2,4-triazole] has an IC50 [5] greater than 20 µM.
In the case of `Nc1nc(Nc2ccc(OCCN3CCCCC3)cc2)nn1C(=O)c1ccc2c(c1)OCO2` [compound #13, 5-Amino-1-(1,3-benzodioxol-5-yl)carbonyl-3-[4-[2-(piperidin-1-yl)ethoxy]phenylamino]-1H-1,2,4-triazole], the IC50 [1] is reported as less than 1 µM.
With `Nc1nc(Nc2ccc(OCCN3CCCC3)cc2)nn1C(=O)c1ccc(OCCN2CCOCC2)cc1` [compound 332, 5-amino-1-[4-(2-(morpholin-4-yl)ethoxy)phenyl]carbonyl-3-[4-[2-(pyrrolidin-1-yl)ethoxy]phenylamino]-1H-1,2,4-triazole] the IC50 [1] was less than 1 µM.
Compound `Cc1ccc(C(=O)n2nc(Nc3ccc4c(c3)OCCO4)nc2N)cc1C` [compound 234, 5-amino-1-(3,4-dimethylphenyl)carbonyl-3-(1,4-benzodioxan-6-yl)amino-1H-1,2,4-triazole] has an IC50 [5] of 1 to 10 µM.
`COc1cc(Nc2nc(N)n(C(=O)c3ccc(OC(C)(C)C)cc3)n2)ccc1OCCN1CCCC1` [compound 317, 5-amino-1-(4-(tert-butoxy)phenyl)carbonyl-3-[3-methoxy-4-[2-(pyrrolidin-1-yl)ethoxy]phenylamino]-1H-1,2,4-triazole] showed an IC50 [1] of less than 1 µM.
